According to patent US20260234150A1, “COMPOUND FOR INHIBITING NLRP3, PREPARATION METHOD, AND USE” (DOVETREE MEDICINES UNUS, INC., priority 2023, published 2026):

How the values were obtained:
[1] = molecular target: T1, His6-Flag-TEV-NLRP3 (134-1036) (Homo sapiens, UniProt Q96P20); test: NLRP3 fluorescence polarization (FP) binding assay, competition with probe NP3-301; conditions: competition with NP3-301 for binding to NLRP3 (134-1036), 30 nM protein
T1 construct: fused on or other part: N-terminal His6 tag, Flag tag and TEV cleavage site
Outline: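 Compound was preincubated 60 min at room temperature with NLRP3 protein (30 nM final) in 50 mM Hepes pH 7.4, 150 mM NaCl, 2.5 mM MgCl2, 1 mM TCEP, 100 μM ATP. Probe NP3-301 (0.5 nM final) was then added for 30 min. Fluorescence polarization was read at ex 485/em 535 nm, and IC50 was obtained by four-parameter logistic fit.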

[2] = molecular target: T2, CYP1A2 (Homo sapiens, UniProt P05177); test: CYP450 enzyme inhibition in human liver microsomes, CYP1A2; format: in vitro ADME; conditions: substrate Phenacetin, read-out: Inhibitory activity IC50 (μM) CYP1A2
T2 construct: 0.05 mg/mL liver microsome (BioIVT, IHG) phosphate buffer solution; tissue BioIVT IHG; host or cells: human liver microsomes
T2 sequence (P05177 1-516): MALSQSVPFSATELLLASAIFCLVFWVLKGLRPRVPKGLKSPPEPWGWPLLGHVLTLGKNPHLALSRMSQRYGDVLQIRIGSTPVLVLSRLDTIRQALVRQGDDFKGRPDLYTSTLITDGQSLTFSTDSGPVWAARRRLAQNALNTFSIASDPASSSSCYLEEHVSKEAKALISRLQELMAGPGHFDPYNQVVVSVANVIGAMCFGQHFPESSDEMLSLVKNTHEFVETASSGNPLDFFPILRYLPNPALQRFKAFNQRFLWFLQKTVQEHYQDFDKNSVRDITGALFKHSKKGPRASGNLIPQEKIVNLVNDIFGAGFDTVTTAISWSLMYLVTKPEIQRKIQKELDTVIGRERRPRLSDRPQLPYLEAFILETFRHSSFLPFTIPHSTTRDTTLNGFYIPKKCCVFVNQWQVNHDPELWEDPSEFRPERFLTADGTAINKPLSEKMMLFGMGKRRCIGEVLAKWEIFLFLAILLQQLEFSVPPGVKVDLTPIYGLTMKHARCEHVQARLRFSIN
Protocol: (§1) This experiment incubates the compound, liver microsomes and different CYP subtype enzyme substrates in a 37° C. water bath to measure the amount of substrate metabolites produced and evaluate the inhibitory effect of the compound of the present disclosure on CYP enzymes based on the IC50 value.
(§2) i. The compound was diluted to 0, 0.02 mM, 0.06 mM, 0.2 mM, 0.6 mM, 2 mM and 6 mM concentrations with DMSO (Aladdin, catalog number: D103273-500 ml).
(§3) ii. The enzyme substrate solutions of each CYP subtype were prepared by phosphate buffer (sigma: V900050-500G).
(§4) iii. Sample incubation. […] After centrifugation at 4000 rpm and 4° C. for 40 min, the supernatant was diluted with pure water according to the response of the substrate metabolites and then detected by UPLC-MS/MS (Sciex, Q-Trap 4500). […]
(§5) The inhibitory effect of the compound on each P450 enzyme in human liver microsomes was calculated as the percentage of reduced metabolite formation compared with the non-inhibitory control (i.e., blank DMSO). The IC50 value for each P450 enzyme in human liver microsomes was calculated using the logarithm of the remaining activity and the inhibitor concentration using Graphpad Prism software. […]

[3] = molecular target: T3, CYP2C9 (Homo sapiens, UniProt P11712); test: CYP450 enzyme inhibition in human liver microsomes, CYP2C9; format: in vitro ADME; conditions: substrate Diclofenac Sodium, read-out: Inhibitory activity IC50 (μM) CYP2C9
T3 construct: 0.05 mg/mL liver microsome (BioIVT, IHG) phosphate buffer solution; tissue BioIVT IHG; host or cells: human liver microsomes
Protocol: as §1, §2, §3, §4, §5

T3 sequence (P11712 whole entry): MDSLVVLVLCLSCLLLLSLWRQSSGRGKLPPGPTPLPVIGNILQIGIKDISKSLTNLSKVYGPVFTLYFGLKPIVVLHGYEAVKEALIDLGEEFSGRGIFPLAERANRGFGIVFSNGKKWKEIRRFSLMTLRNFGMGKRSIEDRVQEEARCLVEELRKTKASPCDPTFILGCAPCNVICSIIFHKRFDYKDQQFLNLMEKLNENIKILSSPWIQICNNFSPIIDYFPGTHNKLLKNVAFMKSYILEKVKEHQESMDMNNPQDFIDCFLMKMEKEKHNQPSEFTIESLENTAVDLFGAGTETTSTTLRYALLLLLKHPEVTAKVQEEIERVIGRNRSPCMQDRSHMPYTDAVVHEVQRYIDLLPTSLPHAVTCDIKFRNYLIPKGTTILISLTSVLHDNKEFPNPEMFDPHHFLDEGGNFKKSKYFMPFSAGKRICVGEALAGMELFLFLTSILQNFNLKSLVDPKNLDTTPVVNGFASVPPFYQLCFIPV
T1 sequence (Q96P20 134-1036 limits assumed): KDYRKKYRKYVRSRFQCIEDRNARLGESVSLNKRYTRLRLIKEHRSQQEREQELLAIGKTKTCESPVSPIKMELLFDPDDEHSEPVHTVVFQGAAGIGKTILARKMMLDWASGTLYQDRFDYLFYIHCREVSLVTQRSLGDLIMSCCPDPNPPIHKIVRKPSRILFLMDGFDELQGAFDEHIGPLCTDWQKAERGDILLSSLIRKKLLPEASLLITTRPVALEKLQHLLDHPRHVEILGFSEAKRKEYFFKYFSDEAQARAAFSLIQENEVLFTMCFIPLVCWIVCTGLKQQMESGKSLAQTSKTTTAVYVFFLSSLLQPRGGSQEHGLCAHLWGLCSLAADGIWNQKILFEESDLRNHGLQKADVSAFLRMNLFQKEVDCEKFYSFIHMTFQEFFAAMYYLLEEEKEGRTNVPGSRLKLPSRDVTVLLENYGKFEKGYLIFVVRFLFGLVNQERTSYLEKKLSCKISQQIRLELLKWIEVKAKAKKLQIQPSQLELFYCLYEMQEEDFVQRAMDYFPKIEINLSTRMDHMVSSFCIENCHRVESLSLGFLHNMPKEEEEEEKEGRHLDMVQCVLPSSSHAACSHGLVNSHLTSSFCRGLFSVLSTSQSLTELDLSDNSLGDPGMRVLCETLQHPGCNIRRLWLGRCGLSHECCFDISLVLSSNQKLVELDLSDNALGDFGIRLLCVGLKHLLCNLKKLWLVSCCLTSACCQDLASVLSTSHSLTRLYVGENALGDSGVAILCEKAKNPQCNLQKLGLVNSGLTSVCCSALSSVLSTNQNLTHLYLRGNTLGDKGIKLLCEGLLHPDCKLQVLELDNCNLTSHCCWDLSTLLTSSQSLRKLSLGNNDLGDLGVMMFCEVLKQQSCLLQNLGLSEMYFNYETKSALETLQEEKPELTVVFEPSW

- IC50 [1]: ≤ 0.1 µM
- IC50 [2]: > 30 µM
- IC50 [3]: > 30 µM
SMILES: CC(=O)N1CCOC[C@H]1CNc1nc2nc(-c3c(C)cc(C(F)(F)F)cc3O)ccc2o1 [Compound 111]
